According to patent publication US11008340B2, “Modulators of ROR-gamma” (Vitae Pharmaceuticals, LLC, priority 2015, dated 2021):

Molecular target: T1, recombinant RORγ Ligand Binding Domain (LBD) protein (Homo sapiens, UniProt P51449)
T1 construct: 6×His; GST
T1 sequence (P51449 269-508 limits assumed): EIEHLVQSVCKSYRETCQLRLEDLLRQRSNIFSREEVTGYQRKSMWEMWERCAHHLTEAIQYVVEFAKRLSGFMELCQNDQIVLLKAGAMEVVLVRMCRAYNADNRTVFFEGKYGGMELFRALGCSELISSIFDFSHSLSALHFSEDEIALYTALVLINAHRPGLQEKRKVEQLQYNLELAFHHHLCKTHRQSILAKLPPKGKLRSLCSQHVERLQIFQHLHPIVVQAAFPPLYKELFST
Assay: Radio-Ligand RORγ Binding Assay (Assay 1)
Settings: radio-ligand competition, 25-hydroxy [26,27-3H]-cholesterol, RORγ LBD; read-out: Avg ROR Bind Ki
Protocol: Radio-Ligand RORγ Binding Assay (Assay 1)
Compounds described herein were tested for ability to bind to RORγ in a cell-free competition assay with commercially available radio-ligand (RL), 25-hydroxy [26,27-^3H]-cholesterol (PerkinElmer, Cat. #NET674250UC), for a ligand binding site on a recombinant RORγ Ligand Binding Domain (LBD) protein expressed as a 6×His-Glutathione-S-Transferase (GST) fusion. The assay was performed in 96-well SPA plates (PerkinElmer, Cat. #1450-401) in 50 mM HEPES buffer, pH 7.4, containing 150 mM NaCl, 5 mM MgCl2, 10% (v/v) glycerol, 2 mM CHAPS, 0.5 mM 3-octylglucopyranoside and 5 mM DTT. Tested compounds were dissolved in DMSO, and semi-log (3.162×) serial dilutions of the compounds were prepared in the same solvent. Two μL of the DMSO solutions were mixed with 28 μL of 8.6 nM 25-hydroxy [26,27-^3H]-cholesterol and 50 μL of 24 nM RORγ LBD. The plate was shaken at 700 rpm for 20 min and incubated for 10 min at rt, after which 40 μL of poly-Lys YSi SPA beads (PerkinElmer, Cat. #RPNQ0010) were added to achieve 50 μg of the beads per well. The plate was incubated on an orbital shaker for 20 min and then for 10 min without agitation at rt. SPA signal for tritium beta radiation was registered on PerkinElmer Microbeta plate reader. […] The percent inhibition vs. concentration data were fit into a four-parameter model, and IC50 values were calculated from the fit as the concentrations corresponding to the inflection points on the dose-response curves. Inhibitory constants (Ki) were calculated using the following equation, where [RL] is the concentration in the assay and KD is a dissociation constant of 25-hydroxy [26,27-^3H]-cholesterol: […]

Which Ki does the source give for `CCS(=O)(=O)c1ccc([C@H](CO)NC(=O)c2cnc3c(C4CC4)n(C[C@H]4CC[C@H](C(F)(F)F)CC4)nc3c2)nc1` [Hy3B-4, 3-cyclopropyl-N-((R)-1-(5-(ethylsulfonyl)pyridin-2-yl)-2-hydroxyethyl)-2-(((1r,4R)-4-(trifluoromethyl)cyclohexyl)methyl)-2H-pyrazolo[4,3-b]pyridine-6-carboxamide] here?
Its Ki is less than 100 nM.

Which Ki does the source give for `CC[C@H]1CN(c2ncc(C(F)(F)F)cn2)Cc2cc(C(=O)N[C@@H](CO)c3ccc(S(=O)(=O)CC)cn3)ccc21` (single isomer, unassigned) [Hy7-18.3] here?
Its Ki is 100 to 1000 nM.

Which Ki does the source give for `CCS(=O)(=O)c1ccc([C@H](CO)NC(=O)c2cn(C)c3c(OC[C@H]4CC[C@H](C(F)(F)F)CC4)nccc23)cc1` [Hy5-5, N-((R)-1-(4-(ethylsulfonyl)phenyl)-2-hydroxyethyl)-1-methyl-7-(((1r,4R)-4-(trifluoromethyl)cyclohexyl)methoxy)-1H-pyrrolo[2,3-c]pyridine-3-carboxamide] here?
The Ki was 100 to 1000 nM.

With `CCC1CN(C2CCC(C(F)(F)F)CC2)Cc2cc(C(=O)NC(CO)c3ccc(S(=O)(=O)CC)cc3)ccc21` (single isomer, unassigned) [Hy7-35.3] as the molecule, how does the Ki read?
Its Ki is less than 100 nM.

Which Ki does the source give for `CCS(=O)(=O)c1ccc(CNC(=O)c2cn(C)c3c(Oc4ccc(C(F)(F)F)cc4)nccc23)cc1` [Hy5-1, N-(4-(ethylsulfonyl)benzyl)-1-methyl-7-(4-(trifluoromethyl)phenoxy)-1H-pyrrolo[2,3-c]pyridine-3-carboxamide] here?
The Ki was 100 to 1000 nM.

Which Ki does the source give for `CCC1CN(C2CCC(C(F)(F)F)CC2)Cc2cc(C(=O)NC(CO)c3ccc(S(=O)(=O)CC)cc3)ccc21` (single isomer, unassigned) [Hy7-35.4] here?
Its Ki is 100 to 1000 nM.

For `CCS(=O)(=O)c1ccc(CNC(=O)c2ccc3c(c2)CCN(c2ncc(C#N)cn2)[C@H]3C(C)C)cc1` (single isomer, unassigned) [Hy2A-1.2], which Ki is on record?
The Ki was 100 to 1000 nM.

With `CCS(=O)(=O)c1ccc(CNC(=O)c2cnc3c(c2)CN(c2ncc(C(F)(F)F)cn2)CC3(C)C)cc1` [Hy7B-1, N-(4-(ethylsulfonyl)benzyl)-8,8-dimethyl-6-(5-(trifluoromethyl)pyrimidin-2-yl)-5,6,7,8-tetrahydro-1,6-naphthyridine-3-carboxamide] as the molecule, how does the Ki read?
Its Ki is 100 to 1000 nM.

How did the Ki turn out when `CCS(=O)(=O)c1ccc(CNC(=O)c2ccc3c(Oc4ccc(C(F)(F)F)cc4)nccc3c2)cc1` [Hy1A-2, N-(4-(ethylsulfonyl)benzyl)-1-(4-(trifluoromethyl)phenoxy)isoquinoline-6-carboxamide] was run?
Its Ki is 100 to 1000 nM.

How did the Ki turn out when `CCOC(=O)c1cnc(N2Cc3cc(C(=O)N[C@@H](CO)c4ccc(S(=O)(=O)CC)cc4)ccc3[C@@H](CC)C2)nc1` (single isomer, unassigned) [Hy7-34.2] was run?
Its Ki is less than 100 nM.

With `CC[C@@H]1CN(c2ncc(C(F)(F)F)cn2)Cc2cc(C(=O)NCc3ccc(S(=O)(=O)CC)cn3)ccc21` (single isomer, unassigned) [Hy7-10.2] as the molecule, how does the Ki read?
The Ki was 100 to 1000 nM.

How did the Ki turn out when `CCS(=O)(=O)c1ccc(CNC(=O)c2ccc3c(OCc4ccc(C(F)(F)F)cc4)cc(C)nc3c2)cc1` [Hy1B-1, N-(4-(ethylsulfonyl)benzyl)-2-methyl-4-((4-(trifluoromethyl)benzyl)oxy)quinoline-7-carboxamide] was run?
Its Ki is 100 to 1000 nM.

`CCOc1cnc(N2Cc3cc(C(=O)NCc4ccc(S(=O)(=O)CC)cc4)ccc3[C@@H](C(C)C)C2)nc1` (single isomer, unassigned) [Hy7-5.2] was tested. Which Ki did it give?
The Ki was 100 to 1000 nM.

`CCS(=O)(=O)c1ccc(CNC(=O)c2ccc3c(c2)CN(c2ncc(N4CCOCC4)cn2)C[C@H]3C(C)C)cc1` (single isomer, unassigned) [Hy7-19.1] was tested. Which Ki did it give?
The Ki was 100 to 1000 nM.

How did the Ki turn out when `CCOC(=O)c1cnc(N2CCc3cc(C(=O)NCc4ccc(S(=O)(=O)CC)cc4)ccc3[C@H]2C(C)C)nc1C(F)(F)F` (single isomer, unassigned) [Hy2A-5.2] was run?
Its Ki is 100 to 1000 nM.

Which Ki does the source give for `CC[C@H]1CN(C2CCC(F)(F)CC2)Cc2cc(C(=O)N[C@@H](CO)c3ccc(S(=O)(=O)CC)cc3)ccc21` (single isomer, unassigned) [Hy7-32.2] here?
Its Ki is 100 to 1000 nM.

`CCS(=O)(=O)c1ccc(CNC(=O)c2ccc3c(c2)CN(c2ncc(C(F)(F)F)cn2)C[C@@H]3C(C)C)cc1` (single isomer, unassigned) [Hy7-15.2] was tested. Which Ki did it give?
The Ki was less than 100 nM.

For `CC1c2ccc(C(=O)NCc3ccc(S(C)(=O)=O)cc3)cc2CCN1Cc1ccc(F)cc1` (racemic) [Hy2A-6, 2-(4-fluorobenzyl)-1-methyl-N-(4-(methylsulfonyl)benzyl)-1,2,3,4-tetrahydroisoquinoline-6-carboxamide], which Ki is on record?
The Ki was greater than 1000 nM.

With `CC[C@@H]1CN(C2CCOCC2)Cc2cc(C(=O)N[C@@H](CO)c3ccc(S(=O)(=O)CC)cc3)ccc21` (single isomer, unassigned) [Hy7-30.1] as the molecule, how does the Ki read?
The Ki was 100 to 1000 nM.

How did the Ki turn out when `CCS(=O)(=O)c1ccc(CNC(=O)c2ccc3c(c2)CN(c2ncc(-c4ccc(=O)n(C)c4)cn2)C[C@@H]3C(C)C)cc1` (single isomer, unassigned) [Hy7-24.2] was run?
The Ki was greater than 1000 nM.

With `CCS(=O)(=O)c1ccc(CNC(=O)c2ccc3c(c2)CCN(c2ncc(C#N)cn2)[C@@H]3C(C)C)cc1` (single isomer, unassigned) [Hy2A-1.1] as the molecule, how does the Ki read?
The Ki was 100 to 1000 nM.

For `CCOC(=O)c1cnc(N2CCc3cc(C(=O)NCc4ccc(S(=O)(=O)CC)cc4)ccc3[C@@H]2C(C)C)nc1` (single isomer, unassigned) [Hy2A-4.1], which Ki is on record?
Its Ki is 100 to 1000 nM.

`CCS(=O)(=O)c1ccc(CNC(=O)c2ccc3c(c2)CN(c2ncc(-c4ccc(=O)[nH]c4)cn2)C[C@@H]3C(C)C)cc1` (single isomer, unassigned) [Hy7-21.2] was tested. Which Ki did it give?
Its Ki is greater than 1000 nM.

Which Ki does the source give for `CCS(=O)(=O)c1ccc(CNC(=O)c2ccc3c(c2)CN(c2ncc(-c4ccnc(OC)c4)cn2)C[C@@H]3C(C)C)cc1` (single isomer, unassigned) [Hy7-23.2] here?
The Ki was 100 to 1000 nM.

How did the Ki turn out when `CCS(=O)(=O)c1ccc(CNC(=O)c2ccc3c(OC[C@H]4CC[C@H](C(F)(F)F)CC4)cc(C)nc3c2)cc1` [Hy1B-2, N-(4-(ethylsulfonyl)benzyl)-2-methyl-4-(((1r,4r)-4-(trifluoromethyl)cyclohexyl)methoxy)quinoline-7-carboxamide] was run?
Its Ki is 100 to 1000 nM.

For `CCS(=O)(=O)c1ccc(CNC(=O)c2ccc3c(c2)CCN(Cc2ccc(C#N)cc2)[C@@H]3C(C)C)cc1` (single isomer, unassigned) [Hy2A-15.2], which Ki is on record?
Its Ki is less than 100 nM.

Same assay, conditions: radio-ligand competition, RORγ LBD; head without unit (Tables 15, 17); read-out: Avg ROR Bind Ki

With `CCS(=O)(=O)c1ccc(CNC(=O)c2cnc3c(c2)CCN(Cc2ccc(F)cc2)C3C(C)C)cc1` (single isomer, unassigned) [Hy2B-6.2] as the molecule, how does the Ki read?
Its Ki is 100 to 1000 nM.

`CCS(=O)(=O)c1ccc(CNC(=O)c2cnc3c(c2)CCN(c2ncc(C(F)(F)F)cn2)[C@H]3C(C)C)cc1` (single isomer, unassigned) [Hy2B-3.1] was tested. Which Ki did it give?
Its Ki is 100 to 1000 nM.

With `CCS(=O)(=O)c1ccc(CNC(=O)c2cnc3c(c2)CCN(c2ncc(Cl)cn2)[C@H]3C(C)C)cc1` (single isomer, unassigned) [Hy2B-2.1] as the molecule, how does the Ki read?
Its Ki is 100 to 1000 nM.

`CCS(=O)(=O)c1ccc(CNC(=O)c2cnc3c(c2)CCN(C[C@H]2CC[C@H](C(F)(F)F)CC2)[C@@H]3C(C)C)nc1` (single isomer, unassigned) [Hy2B-10.2] was tested. Which Ki did it give?
Its Ki is 100 to 1000 nM.

With `CCS(=O)(=O)c1ccc(CNC(=O)c2cnc3c(c2)CCN(c2ncc(Cl)cn2)[C@@H]3C(C)C)cc1` (single isomer, unassigned) [Hy2B-2.2] as the molecule, how does the Ki read?
Its Ki is greater than 1000 nM.

Which Ki does the source give for `CCS(=O)(=O)c1ccc(CNC(=O)c2cnc3c(c2)CCN(C[C@H]2CC[C@H](C(F)(F)F)CC2)[C@@H]3C(C)C)cc1` (single isomer, unassigned) [Hy2B-9.2] here?
Its Ki is 100 to 1000 nM.

For `CCS(=O)(=O)c1ccc(CNC(=O)c2cnc3c(c2)CCN(c2ncc(C(F)(F)F)cn2)[C@@H]3C(C)C)cc1` (single isomer, unassigned) [Hy2B-3.2], which Ki is on record?
Its Ki is 100 to 1000 nM.

Which Ki does the source give for `CCOC(=O)c1cnc(N2CCc3cc(C(=O)NCc4ccc(S(=O)(=O)CC)cc4)cnc3[C@H]2C(C)C)nc1` (single isomer, unassigned) [Hy2B-4.1] here?
Its Ki is greater than 1000 nM.
